US6552167B1, “Polyamide chains of precise length” (Gryphon Therapeutics, Inc., priority 1998, dated 2003)
Positions of bridges follow the written chain, without caps; N, C: chain ends. 'PEG'‑succ = not defined here

What was measured:
chymotrypsin = assay: Polyamide stability to protease digestion, HPLC analysis (chymotrypsin); settings: 24 hours; 1 mg/ml in 1% ammonium bicarbonate, enzyme:substrate 1:100, 37° C.
Procedure: (§1) The compounds produced in Examples 8 and 9 were separately dissolved at 1 mg/ml in a 1% ammonium bicarbonate solution. In separate tubes, these solutions were treated with trypsin, chymotrypsin and elastase (enzyme:substrate ratio 1:100, 37° C.). Aliquots (20 μl) were withdrawn at intervals and analyzed by HPLC.

trypsin = assay: Polyamide stability to protease digestion, HPLC analysis (trypsin); settings: 24 hours; 1 mg/ml in 1% ammonium bicarbonate, enzyme:substrate 1:100, 37° C.
Procedure: as §1

elastase = assay: Polyamide stability to protease digestion, HPLC analysis (elastase); settings: 24 hours; 1 mg/ml in 1% ammonium bicarbonate, enzyme:substrate 1:100, 37° C.
Procedure: as §1

Solubility in solvents = format: physicochemical
[1] = tested on: human leukemic UT-7 EPO dependent cell line; assay: EPO activity in a cell culture assay (UT-7 EPO dependent cell line); format: cell-based; settings: for ED50 (effective dose giving 50% of maximum response): UT-7 EPO dependent cell line
Procedure: Precise Length EMP-dimers with linkers of different lengths were assayed for EPO activity in a cell culture assay (human leukemic UT-7 EPO dependent cell line). Recombinant EPO and the EMP monomer peptides were included as controls, where the monomer is designated as “mono” in Table 1.
The short linker in the precise length EMP-dimer (designated “s” in Table 1) was -(‘PEG’-succ)2-‘PEG’-(succ-‘PEG’)2-. The medium linker (designated “m” in Table 1) was -(‘PEG’-succ)6-‘PEG’-(succ-‘PEG’)6- and the long linker (designated “1” in Table 1) was -(‘PEG’-succ)8-‘PEG’-(succ-‘PEG’)8-.
Table 1 presents the mean OD's for each peptide sample.
Table 2 presents the mean OD's for recombinant EPO sample.
It was clear, from the results presented above, that the ED50 (effective dose giving 50% of maximum response) values were as presented in Table 3.

BCL, turnor cell line = settings: disulfide bond between the cysteines; Terskikh, et al.; cited from earlier work

H-PQPQPKPQPQPQPQPKPQPKPEPE-NH2 [SEQ ID NO:5]
digestion by chymotrypsin (chymotrypsin): stable | digestion by trypsin (trypsin): digested extensively | digestion by elastase (elastase): stable

Fmoc-Ser(But)-(‘PEG’-succ)8-Abu-OH
solubility in the water/acetonitrile/TFA HPLC solvent system (Solubility in solvents): perfectly soluble

erythropoietin mimetic peptide monomer, GGLYACHMGPMTWVCQPLRG (SEQ ID NO:1), control [EMP monomer, reference compound]
ED50 (effective dose giving 50% of maximum response) [1]: 20,000 pM | mean OD ([1]; concentration 1 × 10^−1 μM): .878 | mean OD ([1]; concentration 1.11 × 10^−2 μM): .373 | mean OD ([1]; concentration 1.24 × 10^−3 μM): .078 | mean OD ([1]; concentration 1.37 × 10^−4 μM): .089 | mean OD ([1]; concentration 3.33 × 10^−2 μM): .673 | mean OD ([1]; concentration 3.70 × 10^−3 μM): .210 | mean OD ([1]; concentration 4.12 × 10^−4 μM): .078

Recombinant EPO: recombinant erythropoietin, control
mean OD ([1]; EPO 1.85 ng/ml): .878 | mean OD ([1]; EPO 5.56 ng/ml): .885 | mean OD ([1]; EPO 16.7 ng/ml): .920 | mean OD ([1]; EPO 50 ng/ml): .917 | mean OD ([1]; EPO .00254 ng/ml): .101 | mean OD ([1]; EPO .00762 ng/ml): .108 | mean OD ([1]; EPO .0229 ng/ml): .124 | mean OD ([1]; EPO .0686 ng/ml): .179 | mean OD ([1]; EPO .206 ng/ml): .362 | mean OD ([1]; EPO .617 ng/ml): .650 | ED50 (effective dose giving 50% of maximum response) [1]: 25 pM

amide-GRLPQCVWTMPGMHCAYLGG-COCH2ON═CH—CO-(‘PEG’-succ)12-‘PEG’-CH═NOCH2CO-GGLYACHMGPMTWVCQPLRG-amide [EMP-m (medium dimer)]
ED50 (effective dose giving 50% of maximum response) [1]: 1 pM | mean OD ([1]; concentration 1 × 10^−1 μM): .884 | mean OD ([1]; concentration 1.11 × 10^−2 μM): .876 | mean OD ([1]; concentration 1.24 × 10^−3 μM): .916 | mean OD ([1]; concentration 1.37 × 10^−4 μM): .760 | mean OD ([1]; concentration 1.52 × 10^−5 μM): .597 | mean OD ([1]; concentration 1.69 × 10^−6 μM): .641 | mean OD ([1]; concentration 1.88 × 10^−7 μM): .363 | mean OD ([1]; concentration 2.09 × 10^−8 μM): .287 | mean OD ([1]; concentration 2.32 × 10^−9 μM): .246 | mean OD ([1]; concentration 3.33 × 10^−2 μM): .902 | mean OD ([1]; concentration 3.70 × 10^−3 μM): .888 | mean OD ([1]; concentration 4.12 × 10^−4 μM): .805 | mean OD ([1]; concentration 4.57 × 10^−5 μM): .637 | mean OD ([1]; concentration 5.08 × 10^−6 μM): .712 | mean OD ([1]; concentration 5.65 × 10^−7 μM): .469 | mean OD ([1]; concentration 6.27 × 10^−8 μM): .350 | mean OD ([1]; concentration 6.97 × 10^−9 μM): .280

ADGACRNPWC (H-ADGACRNPWC-{'PEG'‑succ-'PEG'‑succ-'PEG'‑succ-'PEG'‑succ-'PEG'‑succ-'PEG'‑succ-'PEG'‑succ-'PEG'‑succ-Lys(AoA)-NH2}; disulfide 5-10 (inferred); reading uncertain; also: four copies oximated to fluorescein-labelled Lys2Lys template (tetrameric chemobody)) [phage-derived peptide]
binding to the BCL tumor cell line (BCL, turnor cell line): bound
